Measured values published in US5759556A, “Skin care compositions containing certain cyclic aliphatic unsaturated compounds and retinol or retinyl ester” (Chesebrough-Pond's USA Co., Division of Conopco, Inc., priority 1996, dated 1998).
Read-outs that look alike come from different tables or passages of the source.

Columns and labels:
LRAT = target: T1, LRAT (Bos taurus, UniProt Q9BGL2); assay: In vitro microsomal esterification of retinol, LRAT catalyzed (retinyl laurate formation); format: biochemical, bovine; settings: for inhibition at 10 µM: Table B
T1 construct: microsomal fraction isolated from bovine retinal pigment epithelial cells; from tissue; host or cells: bovine retinal pigment epithelial cells, microsomal fraction
T1 sequence (Q9BGL2 1-230): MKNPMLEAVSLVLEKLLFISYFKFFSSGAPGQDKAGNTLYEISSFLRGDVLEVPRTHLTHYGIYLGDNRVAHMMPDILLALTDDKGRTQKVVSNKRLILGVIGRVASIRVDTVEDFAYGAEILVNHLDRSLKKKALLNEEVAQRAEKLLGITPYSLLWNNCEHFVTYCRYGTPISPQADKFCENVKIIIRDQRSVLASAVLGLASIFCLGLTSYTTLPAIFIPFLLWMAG
Procedure: A solution containing 0.1M sodium phosphate pH 7 buffer, 5 mM dithiothreitol, 2 mg/ml bovine serum albumin, 40 micromolar palmitoyl CoA, 40 micromolar dilauroyl phosphatidyl choline, 10 micromolar retinol and a test compound or a solvent blank, is incubated for 1 hour at 37° C. with a microsomal fraction isolated from bovine retinal pigment epithelial cells. After incubation, the reaction was quenched by addition of an equal volume of ethanol, and the retinyl esters formed (retinyl laurate from the LRAT catalyzed reaction and retinyl palmitate from ARAT catalyzed reaction) are extracted with hexane.
A solution containing 0.1M sodium phosphate pH 7 buffer, 5 mM dithiothreitol, 2 mg/ml bovine serum albumin, 40 micromolar palmitoyl CoA, 40 micromolar dilauroyl phosphatidyl choline, 10 micromolar retinol and a test compound or solvent blank, was incubated for 1 hour at 37° C. with a microsomal fraction isolated from bovine retinal pigment epithelial cells. After incubation, the reaction was quenched by addition of an equal volume of ethanol, and the retinyl esters formed (retinyl palmitate from the ARAT catalyzed reaction, and retinyl laurate from the LRAT catalyzed reaction) were extracted with hexane.
The compounds in Table A were tested at a 100 μM concentration.

keratinocytes [1] = assay: 3H-Thymidine incorporation and keratinocyte proliferation (Example 1A); format: cell-based, Human; settings: for mean Thymidine incorp./μg protein ± s.d: 24 hours, n = 3
Procedure: (§1) Human keratinocytes, isolated from neonatal foreskin by trypsin treatment were grown in Dulbecco Modification Eagle (DME) Hams F12 (1:1) medium/10% fetal calf serum in the presence of irradiated 3T3 mouse fibroblasts for establishing dividing keratinocyte colonies. Cells were grown under the above condition until their second passage and kept frozen for future use. Frozen second passage keratinocytes were thawed and plated into the above medium and grown for five days before they were switched to a serum-free MCDB 153-based medium keratinocyte growth medium (KGM) from Clonetics Corporation, San Diego, Calif., containing 0.15 mM Ca, or keratinocyte serum-free media (KSFM) from GIBCO containing 0.09 mM Ca). On day 7, when the cells were 80-90% confluent, they were trypsinized and plated in the serum-free medium for the various experiments.
The incorporation of ^3 H-thymidine by cultured keratinocytes was used as an assay of keratinocyte proliferation. Thymidine is one of four deoxynucleosides which are the monomeric units of DNA, the universal library of genetic information in the animal kingdom. Prior to cell division of a somatic cell such as a keratinocyte, the complete genome of the cell undergoing cell division is replicated. This involves large scale DNA synthesis by the cell and enables both daughter cells to receive identical copies of the genetic material. When ^3 H-thymidine is included in the culture media of keratinocytes which are synthesizing DNA in preparation for cell division then the labelled nucleoside is incorporated into the newly synthesized DNA. The extent of incorporation of ^3 H-thymidine into a population of cells is proportional to the rate of DNA synthesis by this population of cells and therefore an indication of their cellular proliferation.
Keratinocytes (that were cultured as described above) were plated in 24 well plates at a density of about 20,000 cells per well in 1 ml media. After incubation for four days or until the cells were 60-70% confluent, the media was changed. Test compounds were added (in triplicate) to the wells 24 hours after the media change, and four hours later 1μCi ^3 H-Thymidine in 50 μl media was added per well. Cells were incubated for a further 24 hours. Media was removed from the cells, 10% ice cold trichloroacetic acid (TCA) added and plates were incubated on ice for 30 minutes. Cells were washed five times with 5% TCA and allowed to dissolve in 500 μl 0.1M NaOH for at least one hour (usually overnight). The preparations were neutralized with 0.1M HCl; 50 μl of the cell preparation was used to determine total protein content. Disintegrations per minute (DPM) from ^3 H labelling of DNA was determined by liquid scintillation counting of 900 μl of the cell preparation. Thymidine incorporation results were expressed as DPM/μg protein.

keratinocytes [2] = assay: Transglutaminase assay and keratinocyte differentiation, TGase normalized to DNA (Example 1B); format: cell-based, Human; settings: for keratinocyte differentiation / transglutaminase level (in words): […]10^-7 M, […]10^-8 M and […]10^-9 M, vs ethanol control; for mean TGase/DNA × 10^-4 ± s.d: 72 hours, n = 3
Procedure: as §1
(§2) During the process of terminal differentiation in the epidermis, a 15 nm thick layer of protein, known as the cornified envelope (CE) is formed on the inner surface of the cell periphery. The CE is composed of numerous distinct proteins which have been cross-linked together by the formation of N ^ε -(γ-glutamyl) lysine isodipeptide bonds catalyzed by the action of at least two different transglutaminases (TGases) expressed in the epidermis. TGase I is expressed in abundance in the differentiated layers of the epidermis, especially the granular layer, but is absent in the undifferentiated basal epidermis. Thus TGase I is a useful marker of epidermal keratinocyte differentiation with high TGase I levels indicating a more differentiated state. An ELISA based TGase I assay, using a TGase I antibody, was used to assess the state of differentiation of the cultured keratinocytes in the examples that follow.
Keratinocytes (cultured as described above) were plated in 96 well plates at a density of 3,000 cells per well in 200 μl media. After incubation for four days the media was changed to media containing test compounds (six replicates per test). The cells were cultured for a further 72 hours after which time the media was aspirated and the plates stored at -70° C. Plates were removed from the freezer, and the cells washed with PBS. 100 μl sterile water was added and the cells were freeze fractured by freezing at -70° C. then thawing. The cells were incubated for one hour at room temperature (R/T) with PBS/3% BSA (wash buffer, bovine serum albumin), then rinsed with a fresh aliquot of wash buffer. Cells were incubated with 50 μl of primary antibodies monoclonal anti-human transglutaminase mouse antibody (IgG) obtained from Biomedical Industries diluted 1:2,000 in wash buffer for one hour, 37° C. then rinsed two times with wash buffer. Cells were then incubated with 50 μl of secondary antibody (Fab fragment, peroxidase conjugated anti-mouse IgG obtaining from Amersham) diluted 1:4,000 in wash buffer for one hour at 37° C., then rinsed two times with wash buffer. […] The absorbance of samples was read at 492 nm in the plate reader. […] TGase levels were determined by subtracting background from the readings from each treatment and determining mean±s.d. for the replicates exposed to both Ab.
The level of TGase-1 detected after treatment of the cells could be influenced by cell number, i.e., the greater the number of cells the greater the level of TGase-1 detected. […]

keratinocytes [3] = assay: Transglutaminase assay, keratinocyte differentiation (Example 4), normalized to DNA; format: cell-based, Human; settings: for activity at […]: .00025 mM; for effect on transglutaminase / keratinocyte differentiation (in words): Table D, both experiments; for activity at 1000 µM: 1 mM
Procedure: as §1, §2
Keratinocytes (cultured as described above) were plated in 96 well plates at a density of 3,000 cells per well in 200 μl of cell culture media. After incubation for four days, the media was changed to media containing test compounds (six replicates per test). The cells were cultured for a further 72 hours after which time the media was aspirated and the plates stored at -70° C. After the plates were removed from the freezer, the cells were further freezed fractured by freezing and thawing and then washed 3× with PBS. The cells were incubated for one hour at room temperature (R/T) with TBS/5% BSA buffer. Cells were then incubated with 100 μl of monoclonal anti-human transglutaminase (IgG) mouse antibody (primary antibody) obtained from Biomedical Technologies Inc. diluted 1:2000 in TBS/1% BSA buffer for two hours at 37° C., and then rinsed six times with wash buffer (TBS/1% BSA/0.05% Tween-20). Cells were next incubated with 100 μl of Fab fragment, peroxidase conjugated anti-mouse IgG antibody (secondary antibody) from Amersham diluted 1:4,000 in wash buffer for two hours at 37° C. and then rinsed three times with wash buffer and three times with PBS. Cells were incubated with substrate solution (4 mg o-phenylene diamine and 3.3 μl 30% H2 O2 in 10 mL 0.1M citrate buffer, pH 5.0) for five minutes at R/T and in darkness (under aluminum foil). The reaction was stopped by the addition of 50 μl 4N H2SO4. The absorbance of samples was read at 492 nm in the plate reader. Out of the six replicates, four were treated with both antibodies, two were treated only with the secondary antibody (i.e., to determine the background binding of the enzyme conjugated antibody). Transglutaminase I levels were determined by subtracted background from the readings from each treatment and determining the mean s.d. for the replicates exposed to both antibodies.
The level of TGase-1 detected after treatment of the cells could be influenced by cell number, i.e., the greater the number of cells the greater the level of TGase-1 detected. The level of TGase-1 was normalized to DNA content of the cells in the same well thus eliminating variation due to differences in cell number. […]

[4] = Homo sapiens, Keratinocyte, Experiment 2, read-out: Transglutaminase level, % CONTROL

CCCC(O)CCC1C(C)CCCC1(C)C (stereo not drawn) [timberol]
inhibition at 100 µM (LRAT; Table A, 100 μM): 33%

CC1=C(/C=C/C(C)=C/C=C/C(C)=C/C(=O)O)C(C)(C)CCC1 [Retinoic acid]
keratinocyte proliferation (in words) (keratinocytes [1]; […]10^-7 M, […]10^-8 and […]10^-9 M, over ethanol control and each retinol treatment): significantly increased keratinocyte proliferation
mean Thymidine incorp./μg protein ± s.d (keratinocytes [1]; […] 10^-7 M): 2475 ± 116 DPM/μg protein
mean Thymidine incorp./μg protein ± s.d (keratinocytes [1]; […] 10^-8 M): 2686 ± 72 DPM/μg protein
mean Thymidine incorp./μg protein ± s.d (keratinocytes [1]; […] 10^-9 M): 2556 ± 80 DPM/μg protein
keratinocyte differentiation / transglutaminase level (in words) (keratinocytes [2]): decreased keratinocyte differentiation
activity at […] (keratinocytes [3]; Homo sapiens, Keratinocyte, read-out: Transglutaminase level, % CONTROL, Experiment 1): 24%
activity at […] (keratinocytes [3]; Homo sapiens, Keratinocyte, read-out: Transglutaminase level, % CONTROL, Experiment 2): 8%

CC1=C(/C=C/C(C)=C/C=C/C(C)=C/CO)C(C)(C)CCC1 [Retinol]
mean Thymidine incorp./μg protein ± s.d (keratinocytes [1]; […] 10^-7 M): 2218 ± 73 DPM/μg protein
mean Thymidine incorp./μg protein ± s.d (keratinocytes [1]; […] 10^-8 M): 2034 ± 46 DPM/μg protein
mean Thymidine incorp./μg protein ± s.d (keratinocytes [1]; […] 10^-9 M): 1977 ± 19 DPM/μg protein
keratinocyte differentiation / transglutaminase level (in words) (keratinocytes [2]): The decrease in transglutaminase level was dose dependent
mean TGase/DNA × 10^-4 ± s.d (keratinocytes [2]; […] 10^-7 M): 1.14 ± 0.22 × 10^-4
mean TGase/DNA × 10^-4 ± s.d (keratinocytes [2]; […] 10^-8 M): 1.89 ± 0.30 × 10^-4
mean TGase/DNA × 10^-4 ± s.d (keratinocytes [2]; […] 10^-9 M): 2.70 ± 0.59 × 10^-4
activity at 1 µM (keratinocytes [3]; Homo sapiens, Keratinocyte, Experiment 1, .001 mM, read-out: Transglutaminase level, % CONTROL): 67%
activity at […] (keratinocytes [3]; [4]): 63.5%
effect on transglutaminase / keratinocyte differentiation (in words) (keratinocytes [3]): not very effective

CC(=O)CCC1C(C)=CCCC1(C)C (stereo not drawn) [dihydro alpha ionone]
inhibition at 100 µM (LRAT; Table C (comparative), 100 μM): 18%

C/C=C/C(=O)C1C(C)=CC=CC1(C)C (stereo not drawn) [damascenone]
inhibition at 100 µM (LRAT; Table A, 100 μM): 79%
inhibition at 10 µM (LRAT): 29%

C/C=C/C(=O)C1C(C)=CCCC1(C)C (stereo not drawn) [alpha damascone]
activity at 1000 µM (keratinocytes [3]; Homo sapiens, Keratinocyte, Experiment 1, read-out: Transglutaminase level, % CONTROL): 92%
activity at 1000 µM (keratinocytes [3]; [4]): 86%
effect on transglutaminase / keratinocyte differentiation (in words) (keratinocytes [3]): not very effective

CC(C)[C@@H]1CC[C@@H](C)CC1=O [mentone]
% INHIBITION, LRAT (LRAT; Table C (comparative), 100 μM): 0%

C=CCCC(=O)/C=C/C1C(C)=CCCC1(C)C (stereo not drawn) [allyl alpha ionone]
inhibition at 10 µM (LRAT): 17%

C=C1CCCC(C)(C)C1/C=C/C(=O)CC (stereo not drawn) [gamma methyl ionone]
inhibition at 100 µM (LRAT; Table A, 100 μM): 38%
